Data published in patent publication US10875851B2, “Factor XIIa inhibitors” (Merck Sharp & Dohme Corp., priority 2016, dated 2020).

Molecular target: human Factor XIIa (Homo sapiens (Human), UniProt P00748)
Experiment: Factor XIIa Assay
Assay type: biochemical
Conditions: purified human Factor XIIa 500 pM; substrate n-Acetyl-Lys-Pro-Arg-AFC 100 μM; pH 7.4; read-out: FXIIa IC50
How it was run: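 Purified human FXIIa at 500 pM final with 100 μM n-Acetyl-Lys-Pro-Arg-AFC in 50 mM HEPES, 150 mM NaCl, 5 mM CaCl2, 0.1% PEG 8000, pH 7.4, at room temperature or 37° C. Initial fluorogenic hydrolysis rates measured after enzyme–inhibitor equilibration; IC50 taken where Vi=Vo/2.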

Sequence of human Factor XIIa (P00748 373-615): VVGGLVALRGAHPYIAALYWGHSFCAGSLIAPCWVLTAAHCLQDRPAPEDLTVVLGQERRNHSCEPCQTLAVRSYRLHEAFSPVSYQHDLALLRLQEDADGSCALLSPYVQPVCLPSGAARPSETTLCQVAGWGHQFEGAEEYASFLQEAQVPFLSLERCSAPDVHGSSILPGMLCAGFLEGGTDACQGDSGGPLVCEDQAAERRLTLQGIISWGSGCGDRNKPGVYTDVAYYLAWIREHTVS

Compound	IC50 [nM]
CC(C)N[C@H](CCCCN1CCCCC1)C(=O)N1CCN(C2=NC(C)[C@H](c3cccc(C#N)c3)O2)C[C@H]1C(=O)NCc1cccs1 (stereo partly drawn) [Example 169, (2S)-4[5-(3-cyanophenyl)-4-methyl-4,5-dihydro-1,3-oxazol-2-yl]-1-[N-(1-methylethyl)-6-piperidin-1-yl-D-norleucyl]-N-(thiophen-2-ylmethyl)piperazine-2-carboxamide]	12.5
CN(C)CCCC[C@H](C(=O)N1CCN(C2=NC(C)(C)C(c3ccccc3)O2)C[C@H]1C(=O)NCc1cc(CN)cs1)N(C)C (stereo partly drawn) [Example 150, (2S)-N-{[4-(aminomethyl)thiophen-2-yl]methyl}-4-(4,4-dimethyl-5-phenyl-4,5-dihydro-1,3-oxazol-2-yl)-1-(N^2,N^2,N^6,N^6-tetramethyl-D-lysyl)piperazine-2-carboxamide]	48.5
CS(=O)(=O)NCCCC[C@@H](NC1CCCC1)C(=O)N1CCN(C(=O)Oc2ccc3ccccc3c2Cl)C[C@H]1C(=O)NCc1cccs1 [Example 113, 1-chloronaphthalen-2-yl (3S)-4-[N^2-cyclopentyl-N~6~-(methylsulfonyl)-D-lysyl]-3-[(thiophen-2-ylmethyl)carbamoyl]piperazine-1-carboxylate]	8.4
C[C@@H]1N=C(N2CCN(C(=O)[C@@H](CC3CCN(C4CCC(C(N)=O)CC4)CC3)NC3CCC(C(N)=O)CC3)[C@H](C(=O)NCc3cccs3)C2)O[C@H]1c1ccccc1 (stereo partly drawn) [Example 182, (2S)-1-{N-(4-carbamoylcyclohexyl)-3-[1-(4-carbamoylcyclohexyl)piperidin-4-yl]-D-alanyl}-4-[(4S,5S)-4-methyl-5-phenyl-4,5-dihydro-1,3-oxazol-2-yl]-N-(thiophen-2-ylmethyl)piperazine-2-carboxamide]	34.2
CN(C)CCCC[C@@H](NC1CCCCC1)C(=O)N1CCN(C2=NC(C)(C)CO2)C[C@H]1C(=O)NCc1cccs1 [Example 144, (2S)-1-(N^2-cyclohexyl-N^6,N^6-dimethyl-D-lysyl)-4-(4,4-dimethyl-4,5-dihydro-1,3-oxazol-2-yl)-N-(thiophen-2-ylmethyl)piperazine-2-carboxamide]	29.7
CN(C)CCCC[C@@H](NC1CCC2(CC1)CCN(Cc1ccccc1)C2)C(=O)N1CCN(C(=O)Oc2ccccc2Cl)C[C@H]1C(=O)NCc1cccs1 (stereo partly drawn) [Example 90, 2-chlorophenyl (3S)-4-[N^2-(2-benzyl-2-azaspiro[4.5]dec-8-yl)-N^6,N^6-dimethyl-D-lysyl]-3-[(thiophen-2-ylmethyl)carbamoyl]piperazine-1-carboxylate]	0.7
C[C@@H]1N=C(N2CCN(C(=O)[C@@H](CCCCN(C)C)NC3CCCCC3)[C@H](C(=O)NCc3cccs3)C2)O[C@H]1c1cccc(C#N)c1 [Example 138, (2S)-4[(4S,5S)-5-(3-cyanophenyl)-4-methyl-4,5-dihydro-1,3-oxazol-2-yl]-1-(N^2-cyclohexyl-N^6,N^6-dimethyl-D-lysyl)-N-(thiophen-2-ylmethyl)piperazine-2-carboxamide]	1.4
CC1(C)N=C(N2CCN(C(=O)[C@H](N)CCCCN3CCCCC3)[C@H](C(=O)NCc3cccc(Cl)c3)C2)OC1c1ccccc1 (stereo partly drawn) [Example 156, (2S)-N-(3-chlorobenzyl)-4-(4,4-dimethyl-5-phenyl-4,5-dihydro-1,3-oxazol-2-yl)-1-(6-piperidin-1-yl-D-norleucyl)piperazine-2-carboxamide]	52.3
O=C(NCc1cccs1)[C@@H]1CN(C(=O)Oc2cccc3cncnc23)CCN1C(=O)[C@@H](CC1CCCCC1)NC1CCCCC1 [Example 18, quinazolin-8-yl (3S)-4-(N,3-dicyclohexyl-D-alanyl)-3-[(thiophen-2-ylmethyl)carbamoyl]piperazine-1-carboxylate]	4.5
CC1(C)N=C(N2CCN(C(=O)[C@@H](CC3CCCCC3)NC3CCCCC3)[C@H](C(=O)NCc3cccs3)C2)OC1c1ccccc1 (stereo partly drawn) [Example 140, (2S)-1-(N,3-dicyclohexyl-D-alanyl)-4-(4,4-dimethyl-5-phenyl-4,5-dihydro-1,3-oxazol-2-yl)-N-(thiophen-2-ylmethyl)piperazine-2-carboxamide]	19
CC(C)N[C@H](CCCCN1CCCCC1)C(=O)N1CCN(C2=N[C@@H](C)[C@H](c3ccccc3)O2)C[C@H]1C(=O)NCc1cc(CN)cs1 [Example 178, (2S)-N-{[4-(aminomethyl)thiophen-2-yl]methyl}-1-[N-(1-methylethyl)-6-piperidin-1-yl-D-norleucyl]-4-[(4S,5S)-4-methyl-5-phenyl-4,5-dihydro-1,3-oxazol-2-yl]piperazine-2-carboxamide]	4.6
CN(C)CCCC[C@@H](NC1CCCCC1)C(=O)N1CCN(C(=O)CC2CCCC2)C[C@H]1C(=O)NCc1cccs1 [Example 99, (2S)-1-(N^2-cyclohexyl-N^6,N^6-dimethyl-D-lysyl)-4-(cyclopentylacetyl)-N-(thiophen-2-ylmethyl)piperazine-2-carboxamide]	29.7
COc1cc(CNC(=O)[C@@H]2CN(C3=N[C@@H](C)[C@H](c4ccccc4)O3)CCN2C(=O)[C@@H](CCCCN2CCCCC2)NC2CCC(CN)CC2)ccc1C(N)=O (stereo partly drawn) [Example 165, (2S)-1-{N-[4-(aminomethyl)cyclohexyl]-6-piperidin-1-yl-D-norleucyl}-N-(4-carbamoyl-3-methoxybenzyl)-4-[(4S,5S)-4-methyl-5-phenyl-4,5-dihydro-1,3-oxazol-2-yl]piperazine-2-carboxamide]	41.1
C[C@@H]1N=C(N2CCN(C(=O)[C@@H](CCCCN3CCCCC3)NC3CCC(CN)CC3)[C@H](C(=O)NCc3cccc(Cl)c3)C2)O[C@H]1c1ccccc1 (stereo partly drawn) [Example 176, (2S)-1-{N-[4-(aminomethyl)cyclohexyl]-6-piperidin-1-yl-D-norleucyl}-N-(3-chlorobenzyl)-4-[(4S,5S)-4-methyl-5-phenyl-4,5-dihydro-1,3-oxazol-2-yl]piperazine-2-carboxamide]	29
Cc1ccc(OC(=O)N2CCN(C(=O)[C@@H](CCCCN(C)C)NC3CCC4(CC3)CCN(Cc3ccccc3)C4)[C@H](C(=O)NCc3cccs3)C2)c(Cl)c1C (stereo partly drawn) [Example 108, 2-chloro-3,4-dimethylphenyl (3S)-4-[N^2-(2-benzyl-2-azaspiro[4.5]dec-8-yl)-N^6,N^6-dimethyl-D-lysyl]-3-[(thiophen-2-ylmethyl)carbamoyl]piperazine-1-carboxylate]	0.3
CN(C)CCCC[C@H](C(=O)N1CCN(C2=NC(C)(C)C(c3ccccc3)O2)C[C@H]1C(=O)NCc1ccc(C(N)=O)cc1)N(C)C (stereo partly drawn) [Example 155, (2S)-N-(4-carbamoylbenzyl)-4-(4,4-dimethyl-5-phenyl-4,5-dihydro-1,3-oxazol-2-yl)-1-(N^2,N^2,N^6,N^6-tetramethyl-D-lysyl)piperazine-2-carboxamide]	53.6
C[C@@H]1N=C(N2CCN(C(=O)[C@H](N)CCCCN3CCCCC3)[C@H](C(=O)NCc3cccc(Cl)c3)C2)O[C@H]1c1ccccc1 [Example 161, (2S)-N-(3-chlorobenzyl)-4-[(4S,5S)-4-methyl-5-phenyl-4,5-dihydro-1,3-oxazol-2-yl]-1-(6-piperidin-1-yl-D-norleucyl)piperazine-2-carboxamide]	22
CC1(C)N=C(N2CCN(C(=O)[C@H](N)CCCCN3CCCCC3)[C@H](C(=O)NCc3cc(Cl)ccc3-n3cnnn3)C2)OC1c1ccccc1 (stereo partly drawn) [Example 157, (2S)-N-[5-chloro-2-(1H-tetrazol-1-yl)benzyl]-4-(4,4-dimethyl-5-phenyl-4,5-dihydro-1,3-oxazol-2-yl)-1-(6-piperidin-1-yl-D-norleucyl)piperazine-2-carboxamide]	54.8
C[C@@H]1N=C(N2CCN(C(=O)[C@@H](CCCCNS(C)(=O)=O)NC3CCCCC3)[C@H](C(=O)NCc3cccs3)C2)O[C@H]1c1cccc(CN)c1 [Example 117, (2S)-4-{(4S,5S)-5-[3-(aminomethyl)phenyl]-4-methyl-4,5-dihydro-1,3-oxazol-2-yl}-1-[N^2-cyclohexyl-N^6-(methylsulfonyl)-D-lysyl]-N-(thiophen-2-ylmethyl)piperazine-2-carboxamide]	5.2
CC(C)N[C@H](CCCCN1CCCCC1)C(=O)N1CCN(C2=N[C@@H](C)[C@H](c3ccccc3)O2)C[C@H]1C(=O)NCc1cc(F)c(CN)c(F)c1 [Example 181, (2S)-N-[4-(aminomethyl)-3,5-difluorobenzyl]-1-[N-(1-methylethyl)-6-piperidin-1-yl-D-norleucyl]-4-[(4S,5S)-4-methyl-5-phenyl-4,5-dihydro-1,3-oxazol-2-yl]piperazine-2-carboxamide]	44.4
C[C@@H]1N=C(N2CCN(C(=O)[C@@H](CCCCNS(C)(=O)=O)NC3CCCCC3)[C@H](C(=O)NCc3cccs3)C2)O[C@H]1c1cccc(C#N)c1 [Example 116, (2S)-4-[(4S,5S)-5-(3-cyanophenyl)-4-methyl-4,5-dihydro-1,3-oxazol-2-yl]-1-[N^2-cyclohexyl-N^6-(methylsulfonyl)-D-lysyl]-N-(thiophen-2-ylmethyl)piperazine-2-carboxamide]	17.8
CC1(C)N=C(N2CCN(C(=O)[C@@H](CC3CCCCC3)NC3CCCCC3)[C@H](C(=O)NCc3cccs3)C2)OC1c1ccccc1 (stereo partly drawn) [Example 137, (2S)-1-(N,3-dicyclohexyl-D-alanyl)-4-(4,4-dimethyl-5-phenyl-4,5-dihydro-1,3-oxazol-2-yl)-N-(thiophen-2-ylmethyl)piperazine-2-carboxamide]	23.2
C[C@@H]1N=C(N2CCN(C(=O)[C@@H](CCCCNS(C)(=O)=O)NC3CCCCC3)[C@H](C(=O)NCc3cccs3)C2)O[C@H]1c1cccc(Br)c1 [Example 124, (2S)-4-[(4S,5S)-5-(3-bromophenyl)-4-methyl-4,5-dihydro-1,3-oxazol-2-yl]-1-[N^2-cyclohexyl-N^6-(methylsulfonyl)-D-lysyl]-N-(thiophen-2-ylmethyl)piperazine-2-carboxamide]	24.6
